Results taken from ChEMBL document CHEMBL1201862, “PubChem BioAssay data set” (2004).
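Where inhibition never reached the appropriate level, the endpoint shown equals the highest concentration tested. Otherwise, values were interpolated linearly from a five-concentration, 48-hour dose response in 96-well plates. Abbreviation: GI50, concentration required for 50% inhibition of growth.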 Calls of active or inactive are those of the source. No stated cut-off is given here; in the data, active = GI50 up to about 1.1 µM and inactive = higher.

Tests used:
Experiment in all cases: growth of human tumour cells (NCI), 48 h
U-251 = system: U-251
OVCAR-3 = system: OVCAR-3
KM12 = system: KM12
NCI-H226 = system: NCI-H226
SK-MEL-5 = system: SK-MEL-5
M14 = system: M14
MDA-MB-435 = system: MDA-MB-435
MDA-MB-231 = system: MDA-MB-231
NCI-H522 = system: NCI-H522
LOX IMVI = system: LOX IMVI
SN12C = system: SN12C
SR = system: SR
NCI-H460 = system: NCI-H460
OVCAR-5 = system: OVCAR-5
T47D = system: T47D
MCF7 = system: MCF7
HL-60 = system: HL-60
NCI-H23 = system: NCI-H23
EKVX = system: EKVX
HOP-92 = system: HOP-92

In the case of `C[C@]12CC[C@H]3[C@@H](CCC4=CC(=O)CC[C@@]43C)[C@]1(O)CC[C@]2(O)C(=O)CO`, the GI50 (U-251) is reported as > 100 µM (inactive), the GI50 (OVCAR-3) is reported as > 100 µM (inactive) and the GI50 (KM12) is reported as > 100 µM (inactive). For the same molecule, the GI50 (NCI-H226) was > 100 µM (inactive), the GI50 (SK-MEL-5) was > 100 µM (inactive) and the GI50 (M14) was > 100 µM (inactive). For the same molecule, the GI50 (MDA-MB-435) was > 100 µM (inactive), the GI50 (MDA-MB-231) was > 100 µM (inactive) and the GI50 (NCI-H522) was > 100 µM (inactive). For the same molecule, the GI50 (LOX IMVI) was > 100 µM (inactive), the GI50 (SN12C) was > 100 µM (inactive) and the GI50 (SR) was > 100 µM (inactive). The GI50 (NCI-H460) was > 100 µM (inactive), the GI50 (OVCAR-5) was > 100 µM (inactive) and the GI50 (T47D) was > 100 µM (inactive). For the same molecule, the GI50 (MCF7) was > 100 µM (inactive), the GI50 (HL-60) was > 100 µM (inactive) and the GI50 (NCI-H23) was > 100 µM (inactive). For the same molecule, the GI50 (EKVX) was > 100 µM (inactive).
With `O=C1CC(=O)n2cnc3cccc(c32)N1` the GI50 (U-251) was > 100 µM (inactive), the GI50 (OVCAR-3) was > 100 µM (inactive) and the GI50 (KM12) was > 100 µM (inactive). For the same molecule, the GI50 (NCI-H226) was > 100 µM (inactive), the GI50 (SK-MEL-5) was > 100 µM (inactive) and the GI50 (M14) was > 100 µM (inactive). For the same molecule, the GI50 (MDA-MB-435) was > 100 µM (inactive), the GI50 (MDA-MB-231) was > 100 µM (inactive) and the GI50 (HOP-92) was > 100 µM (inactive). The GI50 (SN12C) was > 100 µM (inactive), the GI50 (SR) was > 100 µM (inactive) and the GI50 (NCI-H460) was > 100 µM (inactive). For the same molecule, the GI50 (OVCAR-5) was > 100 µM (inactive), the GI50 (T47D) was > 100 µM (inactive) and the GI50 (MCF7) was > 100 µM (inactive). For the same molecule, the GI50 (HL-60) was > 100 µM (inactive), the GI50 (NCI-H23) was > 100 µM (inactive) and the GI50 (EKVX) was > 100 µM (inactive).
With `CN(C)c1ccc(C=C2N=C(c3ccccc3)N(c3cc(C(=O)c4ccccc4)ccc3N3C(=O)/C(=C/c4ccc(N(C)C)cc4)N=C3c3ccccc3)C2=O)cc1` the GI50 (U-251) was 3.67 µM (inactive), the GI50 (OVCAR-3) was 2.12 µM (inactive) and the GI50 (KM12) was 3.71 µM (inactive). For the same molecule, the GI50 (SK-MEL-5) was 3.42 µM (inactive), the GI50 (M14) was 4.95 µM (inactive) and the GI50 (MDA-MB-435) was 1.9 µM (inactive). For the same molecule, the GI50 (MDA-MB-231) was 14.1 µM (inactive), the GI50 (HOP-92) was > 100 µM (inactive) and the GI50 (LOX IMVI) was 5.98 µM (inactive). The GI50 (SN12C) was 58.7 µM (inactive), the GI50 (SR) was 3.3 µM (inactive) and the GI50 (NCI-H460) was 3.94 µM (inactive). For the same molecule, the GI50 (OVCAR-5) was 35.5 µM (inactive), the GI50 (T47D) was 5.65 µM (inactive) and the GI50 (MCF7) was 3.33 µM (inactive). For the same molecule, the GI50 (HL-60) was 5.01 µM (inactive) and the GI50 (EKVX) was 20.5 µM (inactive).
With `Cc1ccc(CS(=O)(=O)C/N=C2\Sc3ccccc3N\C2=C/C(=O)c2ccc(Cl)cc2)cc1` the GI50 (U-251) was > 10 µM (inactive), the GI50 (OVCAR-3) was > 10 µM (inactive) and the GI50 (KM12) was > 10 µM (inactive). The GI50 (SK-MEL-5) was > 10 µM (inactive), the GI50 (M14) was > 10 µM (inactive) and the GI50 (MDA-MB-435) was > 10 µM (inactive). The GI50 (MDA-MB-231) was > 10 µM (inactive), the GI50 (NCI-H522) was > 10 µM (inactive) and the GI50 (HOP-92) was > 10 µM (inactive). For the same molecule, the GI50 (LOX IMVI) was > 10 µM (inactive), the GI50 (SN12C) was > 10 µM (inactive) and the GI50 (SR) was > 10 µM (inactive). For the same molecule, the GI50 (OVCAR-5) was > 10 µM (inactive), the GI50 (T47D) was 1.71 µM (inactive) and the GI50 (MCF7) was 0.703 µM (active). For the same molecule, the GI50 (HL-60) was 1 µM (active) and the GI50 (NCI-H23) was > 10 µM (inactive).
For `Cc1c(Cc2ccccc2)c(Cc2ccccc2)c(C)[s+]1[O-]`, the GI50 (U-251) was 25.6 µM (inactive), the GI50 (OVCAR-3) was 30.8 µM (inactive) and the GI50 (KM12) was 17.3 µM (inactive). For the same molecule, the GI50 (SK-MEL-5) was 15.6 µM (inactive), the GI50 (M14) was 21.2 µM (inactive) and the GI50 (MDA-MB-435) was 17.7 µM (inactive). For the same molecule, the GI50 (MDA-MB-231) was 19.2 µM (inactive), the GI50 (NCI-H522) was 23.7 µM (inactive) and the GI50 (HOP-92) was 27.4 µM (inactive). For the same molecule, the GI50 (LOX IMVI) was 20.7 µM (inactive), the GI50 (SN12C) was 26.5 µM (inactive) and the GI50 (SR) was 19.8 µM (inactive). The GI50 (NCI-H460) was 27.5 µM (inactive), the GI50 (OVCAR-5) was 20.1 µM (inactive) and the GI50 (T47D) was 12.9 µM (inactive). The GI50 (MCF7) was 20.3 µM (inactive), the GI50 (HL-60) was 12.5 µM (inactive) and the GI50 (NCI-H23) was 28.3 µM (inactive). The GI50 (EKVX) was 18.4 µM (inactive).
In the case of `COc1cc2c[n+](C)c3c4cc(OC)c(OC)cc4c(OCc4ccccc4)cc3c2cc1OC`, the GI50 (U-251) is reported as 0.0273 µM (active), the GI50 (OVCAR-3) is reported as 0.877 µM (active) and the GI50 (KM12) is reported as 2.1 µM (inactive). The GI50 (NCI-H226) was 0.231 µM (active), the GI50 (SK-MEL-5) was 0.838 µM (active) and the GI50 (M14) was 1.77 µM (inactive). For the same molecule, the GI50 (MDA-MB-435) was 1.09 µM (active), the GI50 (MDA-MB-231) was 2.32 µM (inactive) and the GI50 (NCI-H522) was 0.155 µM (active). For the same molecule, the GI50 (HOP-92) was 0.966 µM (active), the GI50 (LOX IMVI) was 1.31 µM (inactive) and the GI50 (SN12C) was 0.265 µM (active). For the same molecule, the GI50 (SR) was 0.14 µM (active), the GI50 (NCI-H460) was 6.62 µM (inactive) and the GI50 (OVCAR-5) was > 100 µM (inactive). The GI50 (T47D) was 0.0986 µM (active), the GI50 (MCF7) was 0.578 µM (active) and the GI50 (NCI-H23) was 1.32 µM (inactive). The GI50 (EKVX) was > 100 µM (inactive).
